# Source: patent US20160193216A1 (Nimbus Iris, Inc., priority 2012, published 2016)
# Target: T1, IRAK4 (Homo sapiens, UniProt Q9NWZ3)
# T1 sequence (Q9NWZ3 1-460): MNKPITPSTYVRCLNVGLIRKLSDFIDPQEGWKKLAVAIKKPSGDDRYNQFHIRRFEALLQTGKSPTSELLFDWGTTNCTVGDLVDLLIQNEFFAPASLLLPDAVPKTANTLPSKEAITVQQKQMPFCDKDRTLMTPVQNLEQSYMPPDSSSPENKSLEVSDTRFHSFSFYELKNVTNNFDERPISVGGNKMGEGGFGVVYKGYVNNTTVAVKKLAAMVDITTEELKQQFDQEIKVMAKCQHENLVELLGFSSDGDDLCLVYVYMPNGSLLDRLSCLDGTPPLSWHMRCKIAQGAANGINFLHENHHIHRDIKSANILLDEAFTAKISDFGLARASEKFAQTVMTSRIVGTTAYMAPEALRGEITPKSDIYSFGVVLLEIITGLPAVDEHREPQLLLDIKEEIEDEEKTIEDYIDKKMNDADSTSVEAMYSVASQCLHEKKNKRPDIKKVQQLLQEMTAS
# Test: IRAK-4 activity inhibition assay (Caliper)
# Assay type: biochemical
# Conditions: 37 μM ATP, 3.5 nM IRAK4
# Experimental: A 1× kinase base buffer was prepared from 50 mM HEPES, pH 7.5 and 0.0015% Brij-35. A stop buffer was prepared from 100 mM HEPES, pH 7.5, 0.015% Brij-35, 0.2% Coating Reagent #3, and 50 mM EDTA.
# Test compound was diluted to 50× of the final desired highest inhibitor concentration in reaction by 100% DMSO. 100 μl of this compound dilution was transferred to a well in a 96-well plate.
# Test compound was serially diluted by transferring 30 μl to 60 μl of 100% DMSO in the next well and so forth for a total of 10 concentrations. 100 μl of 100% DMSO was added to two empty wells for no compound control and no enzyme control in the same 96-well plate.
# A new 96-well plate was marked as intermediate plate. 5 μl of compound serial dilution was transferred from source plate to the corresponding wells of the intermediate plate. 45 μl of 1× kinase base buffer (KB buffer) was added to each well of the intermediate plate. The intermediate plate was placed for 10 min on a shaker.
# 5 μl of each well was transferred from the 96-well intermediate plate to a 384-well plate in duplicates. […] A2 of the 96-well plate is transferred to A3 and A4 of the 384-well plate, and so on.
# IRAK4 and DTT in 1× kinase base buffer was added.
# Assay plate already contained 5 μl of compound in 10% DMSO. Added 10 μl of 2.5× enzyme solution to each well of the 384-well assay plate, except no enzyme control wells. […] Added 10 μl of 1× kinase base buffer to no enzyme control wells in the assay plate. Incubated at room temperature for 10 min.
# Added 10 μl of 2.5× peptide solution to each well of the 384-well assay plate. […] Incubated at 28° C. for 40 minutes. Added 25 μl of stop buffer to stop reaction. Collected data on Caliper.
# Copied conversion % data from Caliper program. Converted conversion % values to percent inhibition values. Percent inhibition=(max−conversion %)/(max−min)*100, where “max” means the conversion % of DMSO control and “min” means the conversion % of no enzyme control.
# The compound numbers correspond to the compound numbers in Table 1. […] “NA” stands for “not assayed.”
row,SMILES,IC50 [µM]
1,"CCOCCC1CCc2sc3ncnc(O[C@H]4CC[C@H](N(C)C)CC4)c3c21 (stereo partly drawn) [Compound I-31, 4-[[3-(2-ethoxyethyl)-7-thia-9,11-diazatricyclo[6.4.0.0[2,6]]dodeca-1(8),2(6),9,11-tetraen-12-yl]oxy]-N,N-dimethylcyclohexan-1-amine]",5 to 20
2,"CN(C)[C@H]1CC[C@H](Nc2ncnc3sc4c(c23)C(C(=O)NCCO)CC4)CC1 (stereo partly drawn) [Compound I-17, 12-[[4-(dimethylamino)cyclohexyl]amino]-N-(2-hydroxyethyl)-7-thia-9,11-diazatricyclo[6.4.0.0̂[2,6]]dodeca-1(12),2(6),8,10-tetraene-3-carboxamide]",< 5
3,"CN(C)[C@H]1CC[C@H](Oc2ncnc3sc4c(c23)[C@@H](CC(O)c2ncco2)CC4)CC1 (mixture of isomers) [Compound I-60, 2-[(3R)-12-[[4-(dimethylamino)cyclohexyl]oxy]-7-thia-9,11-diazatricyclo[6.4.0.0[2,6]]dodeca-1(8),2(6),9,11-tetraen-3-yl]-1-(1,3-oxazol-2-yl)ethan-1-ol]",< 5
4,"CN[C@H]1CC[C@H](Oc2ncnc3sc4c(c23)[C@@H](CCC(N)=O)CCC4)CC1 [Compound I-162, 3-((R)-4-(((1r,4R)-4-(methylamino)cyclohexyl)oxy)-5,6,7,8-tetrahydrobenzo[4,5]thieno[2,3-d]pyrimidin-5-yl)propanamide]",< 5
5,"CN(C1COC1)[C@H]1CC[C@H](Oc2ncnc3sc4c(c23)[C@@H](CC(N)=O)CC4)CC1 [Compound I-129, 2-((R)-4-(((1r,4R)-4-(methyl(oxetan-3-yl)amino)cyclohexyl)oxy)-6,7-dihydro-5H-cyclopenta[4,5]thieno[2,3-d]pyrimidin-5-yl)acetamide]",< 5
6,"NC(=O)C[C@H]1CCc2sc3ncnc(O[C@H]4CC[C@H](N5CCN(Cc6ccccc6)CC5)CC4)c3c21 [Compound I-122, 2-[(3R)-12-[[4-(4-benzylpiperazin-1-yl)cyclohexyl]oxy]-7-thia-9,11-diazatricyclo[6.4.0.0[2,6]]dodeca-1(12),2(6),8,10-tetraen-3-yl]acetamide]",< 5
7,"CC(=O)N1CCc2sc3ncnc(O[C@H]4CC[C@H](N)CC4)c3c2C1 [Compound I-197, 1-[3-[(4-aminocyclohexyl)oxy]-8-thia-4,6, 12-triazatricyclo[7.4.0.0[2,7]]trideca-1(9),2,4,6-tetraen-12-yl]ethan-1-one]",5 to 20
8,"O=S(=O)(CCO)N1CCc2sc3ncnc(N[C@H]4CC[C@H](N5CCOCC5)CC4)c3c2C1 [Compound I-185, 2-(3-[[4-(morpholin-4-yl)cyclohexyl]amino]-8-thia-4,6,12-triazatricyclo[7.4.0.0[2,7]]trideca-1(9),2(7),3,5-tetraene-12-sulfonyl)ethan-1-ol]",< 5
9,"NC(=O)C[C@H]1CCc2sc3ncnc(OC4CCC(NC5COC5)CC4)c3c21 (stereo partly drawn) [Compound I-132, 2-[(3R)-12-([4-[(oxetan-3-yl)amino]cyclohexyl]oxy)-7-thia-9,11-diazatricyclo[6.4.0.0[2,6]]dodeca-1(8),2(6),9,11-tetraen-3-yl]acetamide]",< 5
10,"CN(C)[C@H]1CC[C@H](Oc2ncnc3sc4c(c23)C(C(=O)O)CC4)CC1 (stereo partly drawn) [Compound I-8, 4-(((1r,4r)-4-(dimethylamino)cyclohexyl)oxy)-6,7-dihydro-5H-cyclopenta[4,5]thieno[2,3-d]pyrimidine-5-carboxylic acid]",> 50
11,"NC(=O)C[C@H]1CCc2sc3ncnc(OCC4CCNCC4)c3c21 [Compound I-143, 2-[(3R)-12-(piperidin-4-ylmethoxy)-7-thia-9,11-diazatricyclo[6.4.0.0[2,6]]dodeca-1(12),2(6),8,10-tetraen-3-yl]acetamide]",5 to 20
12,"CN(CC(=O)N1CCCC1)[C@H]1CC[C@H](Nc2ncnc3sc4c(c23)[C@@H](CCC(N)=O)CC4)CC1 [Compound I-127, 3-((S)-4-(((1r,4S)-4-(methyl(2-oxo-2-(pyrrolidin-1-yl)ethyl)amino)cyclohexyl)amino)-6,7-dihydro-5H-cyclopenta[4,5]thieno[2,3-d]pyrimidin-5-yl)propanamide]",5 to 20
13,"CC(=O)N1CCc2sc3ncnc(N[C@H]4CC[C@H](N(C)C)CC4)c3c2C1 [Compound I-173, 1-(3-[[4-(dimethylamino)cyclohexyl]amino]-8-thia-4,6,12-triazatricyclo[7.4.0.0-[2,7]]trideca-1(9),2(7),5-trien-12-yl)ethan-1-one]",5 to 20
14,"CC[C@@H](O)C[C@H]1CCc2sc3ncnc(O[C@H]4CC[C@](CC)(N(C)C)CC4)c3c21 [Compound I-101, (2R)-1-[(3R)-12-[[4-(dimethylamino)-4-ethylcyclohexyl]oxy]-7-thia-9,11-diazatricyclo[6.4.0.0[2,6]]dodeca-1(8),2(6),9,11-tetraen-3-yl]butan-2-ol]",< 5
15,"CN(C)[C@H]1CC[C@H](Oc2ncnc3sc4c(c23)[C@@H](C[C@H](O)C2CCCO2)CC4)CC1 (stereo partly drawn) [Compound I-89, (1S)-2-((R)-4-(((1r,4R)-4-(dimethylamino)cyclohexyl)oxy)-6,7-dihydro-5H-cyclopenta[4,5]thieno[2,3-d]pyrimidin-5-yl)-1-(tetrahydrofuran-2-yl)ethanol]",< 5
16,"CN(C)[C@H]1CC[C@H](Oc2ncnc3sc4c(c23)CC(CC(N)=O)CC4)CC1 (single isomer, unassigned) [Compound I-112]",< 5
17,"NC(=O)C[C@H]1CCc2sc3ncnc(O[C@H]4CC[C@H](N5CCNCC5)CC4)c3c21 [Compound I-131, 2-[(3R)-12-[[4-(piperazin-1-yl)cyclohexyl]oxy]-7-thia-9,11-diazatricyclo[6.4.0.0[2,6]]dodeca-1(12),2(6),8,10-tetraen-3-yl]acetamide]",< 5
18,"C[C@H](O)C[C@H]1CCc2sc3ncnc(O[C@H]4CC[C@H](N(C)CC(=O)N5CCCC5)CC4)c3c21 [Compound I-69, 2-(((1R,4r)-4-(((R)-5-((S)-2-hydroxypropyl)-6,7-dihydro-5H-cyclopenta[4,5]thieno[2,3-d]pyrimidin-4-yl)oxy)cyclohexyl)(methyl)amino)-1-(pyrrolidin-1-yl)ethanone]",< 5
19,"NC(=O)[C@H](O)C[C@H]1CCc2sc3ncnc(O[C@H]4CC[C@H](N5CCCCC5)CC4)c3c21 [Compound I-218, (R)-2-hydroxy-3-((R)-4-(((1r,4R)-4-(piperidin-1-yl)cyclohexyl)oxy)-6,7-dihydro-5H-cyclopenta[4,5]thieno[2,3-d]pyrimidin-5-yl)propanamide]",< 5
20,"CN1Cc2sc3ncnc(O[C@H]4CC[C@H](N5CCOCC5)CC4)c3c2C1 [Compound I-196, 4-methyl-12-[[4-(morpholin-4-yl)cyclohexyl]oxy]-7-thia-4,9,11-triazatricyclo[6.4.0.0[2,6]]dodeca-1(12),2(6),8, 10-tetraene]",5 to 20
21,"NC(=O)[C@@H](O)C[C@H]1CCc2sc3ncnc(O[C@H]4CC[C@H](N5CCCC5)CC4)c3c21 [Compound I-226, (S)-2-hydroxy-3-((R)-4-(((1r,4R)-4-(pyrrolidin-1-yl)cyclohexyl)oxy)-6,7-dihydro-5H-cyclopenta[4,5]thieno[2,3-d]pyrimidin-5-yl)propanamide]",< 5
22,"CCS(=O)(=O)CC1CCc2sc3ncnc(O[C@H]4CC[C@H](N(C)C)CC4)c3c21 (stereo partly drawn) [Compound I-47, 4-([3-[(ethanesulfonyl)methyl]-7-thia-9,11-diazatricyclo[6.4.0.0[2,6]]dodeca-1(12),2(6),8,10-tetraen-12-yl]oxy)-N,N-dimethylcyclohexan-1-amine]",< 5
23,"CN(C)[C@H]1CC[C@H](Oc2ncnc3sc4c(c23)[C@@H](C[C@H](O)C(N)=O)CC4)CC1 [Compound I-74, (2S)-3-[(3R)-12-[[4-(dimethylamino)cyclohexyl]oxy]-7-thia-9,11-diazatricyclo[6.4.0.0̂[2,6]]dodeca-1(8),2(6),9,11-tetraen-3-yl]-2-hydroxypropanamide]",< 5
24,"NC(=O)[C@H](O)C[C@H]1CCc2sc3ncnc(O[C@H]4CC[C@H](N)CC4)c3c21 [Compound I-138, (R)-3-((R)-4-(((1 r,4R)-4-aminocyclohexyl)oxy)-6,7-dihydro-5H-cyclopenta[4,5]thieno[2,3-d]pyrimidin-5-yl)-2-hydroxypropanamide]",< 5
